Measured values published in paper PMC5845869 (Frontiers in Microbiology, 2018).
Values after ≈ are worked out from the molar mass of the structure shown. Like-named read-outs stand apart in the source and are kept apart here. Ends that are not written are not given here. Peptide text beside a SMILES is read from it.

Columns and labels:
[1] = system: Candida albicans ATCC 10231
Method: (§1) Susceptibility tests were performed in low ionic strength broth medium (LCM: 0.5% glucose, 0.25% yeast extract, 0.0125% peptone (w/v)) and in RPMI 1640 medium (Sigma-Aldrich, St Louis, MO, USA) supplemented with 0.03% (w/v) L-glutamine and buffered to pH 7.0 with 0.165 M 4-morpholinopropanesulfonic acid (Sigma-Aldrich, St Louis, MO, USA).
(§2) Antifungal susceptibility tests were performed with nNFAP2, rNFAP2, and sNFAP2 and its peptide fragments in LCM medium against yeast isolates (10^5 cells ml^−1) according to the broth microdilution method described by Tóth et al. ([2016]). Final drug concentration ranged from 25 to 0.098 μg ml^−1 for rNFAP2 and sNFAP2, and from 100 to 6.25 μg ml^−1 for the synthetic peptide fragments. The rNFAP2 was tested against nine yeast isolates, while the sNFAP2 and the synthetic peptide fragments against C. albicans ATCC 10231, C. krusei CBS 573, C. parapsilosis CBS 604, and S. cerevisiae SZMC 0644.
(§3) LCM plates were incubated at 30°C, while RPMI 1640 plates at 35°C for 48 h without shaking, then the absorbance (OD620) was measured with a microtiter plate reader (SPECTROstar Nano, BMG Labtech, Ortenberg, Germany) after resuspension of the cultures with pipette. The absorbance of the untreated control cultures was referred to 100% growth in each case.
(§4) All susceptibility tests were repeated at least two times in three replicates.

Candida krusei CBS 573 = system: Candida krusei CBS 573
Method: as §1, §2, §3, §4

[2] = system: Candida parapsilosis CBS 604
Method: as §1, §2, §3, §4

[3] = system: Saccharomyces cerevisiae SZMC 0644
Method: as §1, §2, §3, §4

[4] = system: C. albicans ATCC 10231 cells; assay: Propidium iodide (PI) staining, plasma membrane disruption; assay type: cell-based, Candida albicans; conditions: treatment at MIC in LCM, 10 min, 30°C; 5 μg ml^−1 PI; fluorescence microscopy
Method: After the treatment, cells were washed with LCM, and then stained with 5 μg ml^−1 PI for 10 min at room temperature in the dark, and then they were washed again with LCM and resuspended in final volume of 100 μl LCM. Cells treated with 70% (v/v) ethanol for 10 min at 4°C were used as positive staining control. Untreated cells were used as negative staining control.
Yeast cells were visualized by light and fluorescence microscopy (Carl Zeiss Axiolab LR 66238C; Zeiss, Oberkochen, Germany) and photographed with a microscope camera (Zeiss AxioCam ERc 5s; Zeiss, Oberkochen, Germany).

Candida glabrata CBS 138 = assay: MIC, broth microdilution in LCM; assay type: cell-based; conditions: 10^5 cells ml^−1, 48 h, 30°C, MIC = growth ≤ 5% (OD620)
Method: as §1, §2, §3, §4

[5] = system: Candida guilliermondii CBS 566; assay: MIC, broth microdilution in LCM; assay type: cell-based; conditions: 10^5 cells ml^−1, 48 h, 30°C, MIC = growth ≤ 5% (OD620)
Method: as §1, §2, §3, §4

[6] = system: Candida lusitaniae CBS 6936; assay: MIC, broth microdilution in LCM; assay type: cell-based; conditions: 10^5 cells ml^−1, 48 h, 30°C, MIC = growth ≤ 5% (OD620)
Method: as §1, §2, §3, §4

[7] = system: Candida tropicalis CBS 94; assay: MIC, broth microdilution in LCM; assay type: cell-based; conditions: 10^5 cells ml^−1, 48 h, 30°C, MIC = growth ≤ 5% (OD620)
Method: as §1, §2, §3, §4

[8] = system: Schizosaccharomyces pombe SZMC 0142; assay: MIC, broth microdilution in LCM; assay type: cell-based; conditions: 10^5 cells ml^−1, 48 h, 30°C, MIC = growth ≤ 5% (OD620)
Method: as §1, §2, §3, §4

[9] = Thermal unfolding followed by ECD spectroscopy; assay type: physicochemical; conditions: for thermal denaturation reversibility: ECD at 95°C, then re-measured after cooling, 5 min at 25°C; for Tm (melting temperature of the native protein structure): ECD at 228 nm, 25 to 95°C at 1°C min^−1, approx. 0.1 mg ml^−1 in H2O, inflection of sigmoidal fit; for native fold remains intact up to: thermal unfolding followed by ECD
Method: ECD spectroscopic measurements were performed using a Jasco-J815 spectropolarimeter (JASCO Corporation, Tokyo, Japan), in the far-UV range (185–260 nm). Protein samples were dissolved in pure H2O in approximately 0.1 mg ml^−1 concentration and measured in a 0.1 cm pathlength quartz cuvette. First, ECD spectra of samples were recorded at 25°C with a scan speed of […]. […] The system was allowed to equilibrate for 1 min before measurements were taken at each temperature point.
The obtained melting curves were fitted with an inverse sigmoidal function of which inflection point designated the melting temperature (Tm) of the native protein structure.
ECD spectra were also recorded at 95°C, the final temperature of the thermal unfolding experiments, then samples were allowed to cool and measured again after 5 min of equilibration at 25°C. The reported spectra are accumulations of 10 scans, from which the similarly recorded, corresponding solvent spectrum was subtracted. Data are given as molar ellipticities. Accurate protein sample concentrations for the corrections of ECD spectra were determined using analytical RP-HPLC.

[10] = LCM, 10^5 cells ml^−1, 48 h, 30°C, MIC = growth ≤ 5% (OD620)

CC[C@H](C)[C@H](NC(=O)[C@H](CS)NC(=O)[C@H](CC(N)=O)NC(=O)[C@H](CC(C)C)NC(=O)[C@H](CCC(N)=O)NC(=O)CNC(=O)CNC(=O)[C@H](CCC(N)=O)NC(=O)[C@H](Cc1c[nH]c2ccccc12)NC(=O)[C@H](CCC(=O)O)NC(=O)[C@H](CS)NC(=O)[C@H](CCCCN)NC(=O)CNC(=O)[C@H](CO)NC(=O)[C@@H](NC(=O)[C@@H](NC(=O)[C@H](CCCCN)NC(=O)[C@H](CO)NC(=O)[C@H](CCCCN)NC(=O)[C@H](CC(=O)O)NC(=O)[C@H](CO)NC(=O)[C@@H]1CCCN1C(=O)CNC(=O)[C@H](CO)NC(=O)[C@H](Cc1c[nH]cn1)NC(=O)[C@H](Cc1ccc(O)cc1)NC(=O)[C@@H](N)CCCCN)C(C)C)[C@@H](C)CC)C(=O)N[C@@H](C)C(=O)N[C@H](C(=O)O)[C@@H](C)O [Fr-1] (H-KYHSGPSDKSKVISGKCEWQGGQLNCIAT-OH; N-terminus and C-terminus assumed) showed an MIC ([1]; ATCC 10231, 48 h) greater than 100 µg/mL, an MIC (Candida krusei CBS 573; CBS 573, 48 h) of 100 µg/mL (≈ 32 µM) and an MIC ([2]; CBS 604, 48 h) greater than 100 µg/mL. For the same compound, the MIC ([3]; SZMC 0644, 48 h) was 100 µg/mL (≈ 32 µM).
For CC[C@H](C)[C@H](N)C(=O)N[C@@H](C)C(=O)N[C@H](C(=O)N[C@@H](CO)C(=O)N1CCC[C@H]1C(=O)N[C@@H](Cc1ccc(O)cc1)C(=O)N[C@@H](Cc1ccc(O)cc1)C(=O)N[C@@H](C)C(=O)N[C@@H](CS)C(=O)N[C@@H](CC(N)=O)C(=O)N[C@@H](CS)C(=O)N1CCC[C@H]1C(=O)N[C@@H](CC(N)=O)C(=O)N[C@@H](CC(N)=O)C(=O)N[C@@H](CS)C(=O)N[C@@H](CCCCN)C(=O)N[C@@H](Cc1c[nH]cn1)C(=O)N[C@@H](CCCCN)C(=O)N[C@@H](CCCCN)C(=O)NCC(=O)N[C@@H](CO)C(=O)NCC(=O)N[C@@H](CS)C(=O)O)[C@@H](C)O [Fr-2] (H-IATSPYYACNCPNNCKHKKGSGC-OH; N-terminus and C-terminus assumed), the “Plasma membrane disruption (PI staining)” value [4] was “prompt plasma membrane disruption effect”.
CC[C@H](C)[C@H](NC(=O)[C@H](CS)NC(=O)[C@H](CC(N)=O)NC(=O)[C@H](CC(C)C)NC(=O)[C@H](CCC(N)=O)NC(=O)CNC(=O)CNC(=O)[C@H](CCC(N)=O)NC(=O)[C@H](Cc1c[nH]c2ccccc12)NC(=O)[C@H](CCC(=O)O)NC(=O)[C@H](CS)NC(=O)[C@H](CCCCN)NC(=O)CN)C(=O)N[C@@H](C)C(=O)N[C@H](C(=O)O)[C@@H](C)O [Fr-3] (H-GKCEWQGGQLNCIAT-OH; N-terminus and C-terminus assumed) showed an MIC ([1]; ATCC 10231, 48 h) greater than 100 µg/mL, an MIC (Candida krusei CBS 573; CBS 573, 48 h) greater than 100 µg/mL and an MIC ([2]; CBS 604, 48 h) greater than 100 µg/mL. For the same compound, the MIC ([3]; SZMC 0644, 48 h) was greater than 100 µg/mL and the “Plasma membrane disruption (PI staining)” value [4] was “did not disrupt the plasma membrane”.
Compound NCCCC[C@H](NC(=O)[C@H](CCCCN)NC(=O)[C@H](Cc1c[nH]cn1)NC(=O)[C@H](CCCCN)NC(=O)[C@H](CS)NC(=O)[C@H](CC(N)=O)NC(=O)[C@@H](N)CC(N)=O)C(=O)NCC(=O)N[C@@H](CO)C(=O)NCC(=O)N[C@@H](CS)C(=O)O [Fr-4] (H-NNCKHKKGSGC-OH; N-terminus and C-terminus assumed) has an MIC ([1]; ATCC 10231, 48 h) of 50 µg/mL (≈ 42.5 µM), an MIC (Candida krusei CBS 573; CBS 573, 48 h) of 50 µg/mL (≈ 42.5 µM) and an MIC ([2]; CBS 604, 48 h) of 50 µg/mL (≈ 42.5 µM). For the same compound, the MIC ([3]; SZMC 0644, 48 h) was 50 µg/mL (≈ 42.5 µM) and the “Plasma membrane disruption (PI staining)” value [4] was “prompt plasma membrane disruption effect”.
Compound CC[C@H](C)[C@H](N)C(=O)N[C@@H](C)C(=O)N[C@H](C(=O)N[C@@H](CO)C(=O)N1CCC[C@H]1C(=O)N[C@@H](Cc1ccc(O)cc1)C(=O)N[C@@H](Cc1ccc(O)cc1)C(=O)N[C@@H](C)C(=O)N[C@@H](CS)C(=O)N[C@@H](CC(N)=O)C(=O)N[C@@H](CS)C(=O)N1CCC[C@H]1C(=O)O)[C@@H](C)O [Fr-6] (H-IATSPYYACNCP-OH; N-terminus and C-terminus assumed) has an MIC ([1]; ATCC 10231, 48 h) greater than 100 µg/mL, an MIC (Candida krusei CBS 573; CBS 573, 48 h) greater than 100 µg/mL and an MIC ([2]; CBS 604, 48 h) greater than 100 µg/mL. It also gave an MIC ([3]; SZMC 0644, 48 h) greater than 100 µg/mL.
In the case of CC[C@H](C)[C@H](N)C(=O)N[C@@H](C)C(=O)NCC(=O)N[C@@H](C)C(=O)N[C@@H](Cc1c[nH]cn1)C(=O)N[C@@H](CCCCN)C(=O)N[C@@H](CS)C(=O)N[C@@H](CCCCN)C(=O)N1CCC[C@H]1C(=O)N[C@@H](CS)C(=O)N[C@@H](Cc1ccc(O)cc1)C(=O)NCC(=O)N[C@@H](Cc1ccc(O)cc1)C(=O)N[C@@H](CCCCN)C(=O)N[C@H](C(=O)N[C@@H](CC(N)=O)C(=O)N[C@@H](CO)C(=O)N[C@@H](CS)C(=O)N[C@@H](CS)C(=O)N[C@@H](CC(N)=O)C(=O)N[C@@H](CO)C(=O)N1CCC[C@H]1C(=O)N[C@@H](CC(N)=O)C(=O)O)[C@@H](C)O [Sh-Fr-2] (H-IAGAHKCKPCYGYKTNSCCNSPN-OH; N-terminus and C-terminus assumed), the “Plasma membrane disruption (PI staining)” value [4] is reported as “prompt plasma membrane disruption effect”.
With NCCCC[C@H](NC(=O)CNC(=O)[C@H](CCCCN)NC(=O)[C@H](CC(N)=O)NC(=O)[C@H](CS)NC(=O)[C@@H](N)CS)C(=O)N[C@@H](CC(N)=O)C(=O)N[C@@H](CCCCN)C(=O)NCC(=O)N[C@@H](CO)C(=O)N[C@@H](Cc1c[nH]cn1)C(=O)O [Sh-Fr-4] (H-CCNKGKNKGSH-OH; N-terminus and C-terminus assumed) the MIC ([1]; ATCC 10231, 48 h) was 50 µg/mL (≈ 42.5 µM), the MIC (Candida krusei CBS 573; CBS 573, 48 h) was 50 µg/mL (≈ 42.5 µM) and the MIC ([2]; CBS 604, 48 h) was 50 µg/mL (≈ 42.5 µM). For the same compound, the MIC ([3]; SZMC 0644, 48 h) was 50 µg/mL (≈ 42.5 µM) and the “Plasma membrane disruption (PI staining)” value [4] was “prompt plasma membrane disruption effect”.
Work on “IATSPYYACNCPNNCKHKKGSGCKYHSGPSDKSKVISGKCEWQGGQLNCIAT (disulfide (positions not given here)) [nNFAP2]” yielded an MIC (Candida glabrata CBS 138) of 1.56 µg/mL, an MIC [5] of 1.56 µg/mL and an MIC [6] of 3.125 µg/mL. For the same compound, the MIC [7] was 1.56 µg/mL, the MIC [8] was 1.56 µg/mL and the MIC [1, 10] was 6.25 µg/mL. It also gave an MIC (Candida krusei CBS 573; [10]) of 12.5 µg/mL, an MIC [2, 10] of 1.56 µg/mL and an MIC [3, 10] of 3.125 µg/mL. The thermal denaturation reversibility [9] was “reversible”, the “Tm (melting temperature of the native protein structure)” value [9] was 72.92 °C and the “native fold remains intact up to” value [9] was “approximately 70 °C”.
With “IATSPYYACNCPNNCKHKKGSGCKYHSGPSDKSKVISGKCEWQGGQLNCIAT (disulfide (positions not given here)) [sNFAP2]” the MIC [1, 10] was 6.25 µg/mL, the MIC (Candida krusei CBS 573; [10]) was 12.5 µg/mL and the MIC [2, 10] was 1.56 µg/mL. For the same compound, the MIC [3, 10] was 3.125 µg/mL, the thermal denaturation reversibility [9] was “reversible” and the “Tm (melting temperature of the native protein structure)” value [9] was 74.94 °C. For the same compound, the “native fold remains intact up to” value [9] was “approximately 70 °C”.
Work on KYHSGPSDKSKVIS [Fr-5] yielded an MIC ([1]; ATCC 10231, 48 h) greater than 100 µg/mL, an MIC (Candida krusei CBS 573; CBS 573, 48 h) greater than 100 µg/mL and an MIC ([2]; CBS 604, 48 h) greater than 100 µg/mL. It also gave an MIC ([3]; SZMC 0644, 48 h) greater than 100 µg/mL.
